Assay results as given in patent US20210024455A1 (priority 2018, published 2021).

Experiments:
[1] = biological target: T1, TRF2 (Homo sapiens, UniProt Q15554); assay: biochemical; type: binding; settings: read-out: inhibition rate (%) in DSE FRET assay
T1 sequence (Q15554 1-542): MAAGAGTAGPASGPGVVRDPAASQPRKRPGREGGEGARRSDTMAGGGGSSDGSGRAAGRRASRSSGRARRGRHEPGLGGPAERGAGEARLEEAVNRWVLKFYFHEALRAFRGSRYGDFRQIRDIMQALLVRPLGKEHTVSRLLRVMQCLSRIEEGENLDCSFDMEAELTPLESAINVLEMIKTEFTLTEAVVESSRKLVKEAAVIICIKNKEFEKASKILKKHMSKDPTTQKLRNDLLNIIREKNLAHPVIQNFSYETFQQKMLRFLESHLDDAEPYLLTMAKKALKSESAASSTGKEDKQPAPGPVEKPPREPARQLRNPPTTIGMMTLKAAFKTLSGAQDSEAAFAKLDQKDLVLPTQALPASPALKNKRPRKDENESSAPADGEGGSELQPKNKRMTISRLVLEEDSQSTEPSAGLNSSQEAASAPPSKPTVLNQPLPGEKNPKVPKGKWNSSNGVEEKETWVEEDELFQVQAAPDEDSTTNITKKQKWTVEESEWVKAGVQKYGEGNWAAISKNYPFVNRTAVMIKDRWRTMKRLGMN

[2] = test system: HeLa1.2.11 cells; assay: cells; type: cell-based; settings: read-out: IC50, suppressing proliferation of HeLa1.2.11 cells

SMILES	inhibition at 50 µM [1] [%]	IC50 [2] [µM]
O=[N+]([O-])c1cc([N+](=O)[O-])c(Oc2ccccc2N(c2ccccc2)c2ccccc2)c([N+](=O)[O-])c1 [compound 144]	38.3	31
Cc1ccc(N(c2ccccc2)c2ccccc2Oc2c([N+](=O)[O-])cc([N+](=O)[O-])cc2[N+](=O)[O-])cc1 [compound 145]	38.7	26
CC(=O)c1ccc(N(c2ccccc2)c2ccccc2Oc2c([N+](=O)[O-])cc([N+](=O)[O-])cc2[N+](=O)[O-])cc1 [compound 168]	25.5	43
CC(=O)c1ccc(N(c2ccc(C(C)=O)cc2)c2ccccc2Oc2c([N+](=O)[O-])cc([N+](=O)[O-])cc2[N+](=O)[O-])cc1 [compound 171]	24.7	48
CC(C)(C)c1ccc(Oc2c([N+](=O)[O-])cc([N+](=O)[O-])cc2[N+](=O)[O-])c(N(c2ccccc2)c2ccccc2)c1 [compound 192]	33.6	24
CC(=O)c1ccc(N(c2ccccc2)c2cc(C(C)(C)C)ccc2Oc2c([N+](=O)[O-])cc([N+](=O)[O-])cc2[N+](=O)[O-])cc1 [compound 201]	23	15
COc1ccc(N(c2ccccc2)c2ccccc2Oc2c([N+](=O)[O-])cc([N+](=O)[O-])cc2[N+](=O)[O-])cc1 [compound 204]	20.4	20
CC(=O)c1ccc(N(c2ccc(C)cc2)c2ccccc2Oc2c([N+](=O)[O-])cc([N+](=O)[O-])cc2[N+](=O)[O-])cc1 [compound 225]	36.9	28
CC(=O)c1ccc(N(c2ccc(C(C)(C)C)cc2)c2ccccc2Oc2c([N+](=O)[O-])cc([N+](=O)[O-])cc2[N+](=O)[O-])cc1 [compound 227]	18.4	18
Cc1cc([N+](=O)[O-])cc([N+](=O)[O-])c1Oc1ccccc1N(c1ccccc1)c1ccc(C(C)(C)C)cc1 [compound 228]	11.8	20
COc1ccc(N(c2ccccc2)c2cc(C(C)(C)C)ccc2Oc2c([N+](=O)[O-])cc([N+](=O)[O-])cc2[N+](=O)[O-])cc1 [compound #207]	23.7	19
